ChEMBL document CHEMBL2094269, “WEHI/Eskitis Trypanosoma b. brucei screening data”

How the values were obtained:
[1] = DNDI: Cytotoxicity against human MRC-5 lung fibroblast cells.; details: IC50
[2] = test system: Trypanosoma brucei brucei; experiment: microbe, parasite or virus in culture; type: functional, organism-based, STIB 795
Description: DNDI: Inhibition of Human African Trypanosomiasis (HAT), STIB 795, in vitro

IC50 ([2]; Trypanosoma brucei, STIB 795) [µM] | IC50 [2] [µM] | Structure (SMILES) | IC50 [1] [µM]
1.95 |  | COC(=O)N/N=C\c1ccc(-c2ccccc2Cl)o1 | > 41.7
4.67 |  | CC(CON1C(N)=NC(N)=NC1(C)C)Cc1cc(Cl)ccc1Cl (stereo not given) | > 20.8
2.18 |  | O=C1CC(n2nnnc2-c2ccccc2)C2COC1O2 (stereo not given) | > 20.8
2.56 |  | CCOc1ccc(OCc2ccc(C(=O)N3CCCC(C)C3)cc2)cc1 (stereo not given) | > 41.7
5.51 |  | CCOC(=O)CNC(=O)C(Cc1ccccc1)NS(=O)(=O)c1cccs1 (stereo not given) | > 41.7
4.72 |  | O=C1Nc2ccc(OC(F)(F)F)cc2C1=O | > 41.7
2.81 |  | Clc1ccc2nnnc(-c3ccccc3)c2c1 | 4.48
4.26 |  | Cc1ncc(CO)c(/C=N/NC(=O)c2ccc(C(C)(C)C)cc2)c1O | 6.25
≤ 3.11 |  | COc1ccc(CCON2C(N)=NC(N)=NC2(C)C)cc1 | > 4.17
6.02 |  | N=C(Nc1nc(-c2ccccn2)cc2ccccc12)c1cccc(Cl)c1 | > 41.7
5.05 |  | CC(O)CN1C(=O)c2ccc3c4c(ccc(c24)C1=O)C(=O)N(CC(C)O)C3=O (stereo not given) | > 41.7
2.2 |  | Cc1ccc2c(c1)OCC(CC(=O)NCCN(C)C)N2Cc1ccc(F)cc1 (stereo not given) | > 4.17
2.83 |  | Brc1ccc(-c2nc(N3CCNCC3)c3ccccc3n2)cc1 | > 10.4
5.26 |  | C[n+]1ccc(/C=C/c2c[nH]c3ccc(Br)cc23)cc1 | > 4.17
5.44 |  | COc1ccccc1NC(=O)c1cc(Cl)nnc1Cl | > 20.8
0.697 |  | Cc1nn2c3c(nnc2c1-c1ccccc1)C(=O)CCC3 | 18.1
0.973 |  | Oc1c(C(Nc2nccs2)c2ccccn2)ccc2cccnc12 (stereo not given) | 4.16
2.32 |  | O/N=C1C=C/C(=N\O)c2ncccc2/1 | 4.89
0.798 |  | COc1ccc(/C(N)=N/OC(=O)c2cc(OC)c(OC)cc2OC)cc1OC | > 41.7
5.64 |  | Cc1ccccc1OCCn1c(=N)n(CC(C)C)c2ccccc21 | > 20.8
1.44 |  | CCN(CC)c1ccc(/C=N/NC(=O)c2nn(C)cc2Cl)c(O)c1 | > 41.7
0.404 |  | Cc1ccc(O)c(/N=N/c2nnc[nH]2)c1 | > 10.4
1.9 |  | CNCCC(Sc1ccc(C(F)(F)F)cc1)c1ccccc1 (stereo not given) | > 20.8
3.32 |  | Cc1ccnc(NC(c2ccc3cccnc3c2O)c2sccc2C)c1 (stereo not given) | > 20.8

IC50 ([2]; Trypanosoma brucei, STIB 795) [µM] | IC50 [2] [µM] | Structure (SMILES) | IC50 [1] [µM]
0.895 |  | CCCCc1c(C)[nH]n(-c2nc3ccccc3[nH]2)c1=O | > 1.04
5.26 |  | CC(C)(C)c1ccc2c(c1)OCCOCCOCCOCCO2 | > 20.8
0.727 |  | O=C1c2ccccc2C(=O)N1/N=C/c1ccccc1 | > 41.7
4.55 |  | COC(=O)c1c(SCC(=O)Nc2cccc(OC)c2)[nH]c2ccccc2c1=O | > 20.8
5.24 |  | Cc1cc(C(=O)N/N=C/c2c(O)ccc3ccccc23)c2ccccc2n1 | > 4.17
5.25 | 5.23 | O=C1Nc2ccccc2/C1=C/c1ccccn1 | > 20.8
5.06 |  | O=c1nc2oc3ccc4ccccc4c3cc-2c(=O)[nH]1 | > 20.8
0.414 |  | Cc1ccccc1C(=O)O/N=C(\N)Cc1cccs1 | > 20.8
2.16 |  | CCOC(=O)C/C(C)=N/Nc1ccc(-n2nc(C)c(C)c2C)nn1 | > 10.4
5.38 |  | CCCCOc1ccccc1/C=N/NC(=N)N | > 41.7
5.55 |  | O=C1/C(=C/c2ccccc2)CCS(=O)(=O)c2ccccc21 | > 41.7
1.66 |  | Cc1nc2ncnn2c(Sc2ccccc2NC(=O)c2cccc(F)c2)c1C | > 20.8
0.881 |  | Cc1ccccc1C(=O)O/N=C(\N)c1ccccc1 | > 20.8
5 |  | O=S(=O)(Nc1ccc(O)c(-c2c(O)ccc3ccccc23)c1)c1cccs1 | > 41.7
5.73 |  | CCCCCc1ccc(-c2ccc(C(=N)N)cc2)cc1 | 15.5
4.49 |  | COc1ccc(C(=O)O/N=C(\N)c2ccccn2)c(OC)c1 | > 20.8
5.31 |  | Fc1ccc(C(CCCN2CCN3CCCCC3C2)c2ccc(F)cc2)cc1 (stereo not given) | > 41.7
8.57 |  | Cc1ccc2[nH]c3c(c2c1)CCC/C3=N\N=C(N)N | > 20.8
5.33 |  | Cc1cc2nc(N/C(N)=N/C(=O)NC3CCCCC3)nc(C)c2cc1C | > 41.7
4.59 |  | NCC(c1ccc(Cl)cc1)c1ccc(-c2ccccc2)cc1 (stereo not given) | > 41.7
1.95 |  | c1ccc(COc2ccc(-c3cc(C4CCNCC4)[nH]n3)cc2)cc1 | > 10.4
1.42 |  | NC(N)=N/N=C1/C(=O)Nc2ccc(F)cc21 | > 41.7
3.1 |  | CCCCNCc1[nH]c2ccccc2c1Cl | > 20.8
